Experimental findings from patent publication US20210106648A1, “SYNERGISTIC COMBINATION OF CHEMOTHERAPY AND PEPTIDE FOR TREATING CANCER” (TOBEBIO Novel Drug Laboratory Co., Ltd., priority 2019, published 2021) are described below.

One test deals with CT26 colon cancer cells. Put plainly: CT26 colon cancer liver metastasis model. It is filed as in vivo, Balb/c mice. Particulars: allostatine-1 5 mg/kg daily s.c.; CPT-11 100 mg/kg weekly i.p.
The test system of test [1] is AsPC-1 pancreatic cancer cells. It is filed as in vivo, Balb/c nude mice. Particulars: allostatine-1 2.5 mg/kg daily s.c.; paclitaxel 8 mg/kg weekly i.p.

Where a name gives a salt, the structure may show the parent alone. Ends that are not written are not given here.

Turning to `CCc1c2c(nc3ccc(OC(=O)N4CCC(N5CCCCC5)CC4)cc13)-c1cc3c(c(=O)n1C2)COC(=O)[C@]3(O)CC` [CPT-11, Irinotecan hydrochloride], the median survival days in the test on CT26 colon cancer cells is listed as 35.5 days. Turning to `CC(=O)O[C@H]1C(=O)[C@@]2(C)[C@H]([C@H](OC(=O)c3ccccc3)[C@]3(O)C[C@H](OC(=O)[C@H](O)[C@@H](NC(=O)c4ccccc4)c4ccccc4)C(C)=C1C3(C)C)[C@]1(OC(C)=O)CO[C@@H]1C[C@@H]2O` [Paclitaxel], the “Median survival” value in test [1] stood at 108 days. As to “HGVSGWGQHGTHG [Allostatine-1, linear 13-amino acid analog peptide of alloferon-1]”, the “Median survival” value in test [1] stood at 97 days. The median survival days in the test with CT26 colon cancer cells is on record as 30 days.
